Laboratory results taken from patent publication US20080009418A1, “Selective Inhibitors” (Alchemia LTD., priority 2004, published 2008).

How the values were obtained:
Human Melanocortin (MC3) = target: T1, Human Melanocortin (MC3) (Homo sapiens, UniProt P41968); assay: Radioligand binding, human melanocortin MC3 membranes, FlashPlate, [125I]-NDP-αMSH; settings: compound at 10 μM; [125I]-NDP-αMSH
T1 construct: purchased Perkin Elmer Biosignal
Procedure, shortened: (§1)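 Cloned human receptor membranes were coated onto FlashPlate wells and incubated with radioligand and compound (added from a 0.5 mM DMSO daughter plate) for 1 hour at room temperature in the dark. Scintillation counting gave percent inhibition, with DMSO defining total and reference ligand defining non-specific binding.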

Human κ-Opioid (KOP) = target: T2, Human κ-Opioid (KOP) (Homo sapiens, UniProt P41145); assay: Radioligand binding, human κ-opioid (KOP) membranes, filtration, [3H]-Diprenorphine; settings: compound at 10 μM; [3H]-Diprenorphine
T2 construct: purchased Perkin Elmer Biosignal
Procedure, shortened: (§2)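 Percent inhibition of radioligand binding measured on recombinant human membranes: NK1 with [125I]-Substance P, KOP with [3H]-Diprenorphine. Incubation 1 h at room temperature, then harvest onto 0.3% PEI-soaked filters, cold Tris-HCl pH 7.4 washes and scintillation counting; non-specific binding from reference ligand wells.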

Human μ-opioid (MOP) = target: T3, Human μ-opioid (MOP) (Homo sapiens, UniProt P35372); assay: Radioligand binding, human μ-opioid (MOP) membranes, FlashPlate, [3H]-Naloxone; settings: compound at 10 μM; [3H]-Naloxone
T3 construct: purchased Perkin Elmer Biosignal
Procedure, shortened: as §1

[1] = target: T4, Human melanin-concentrating hormone (MCH1) (Homo sapiens, UniProt Q99705); assay: Radioligand binding, human melanin-concentrating hormone MCH1 membranes, FlashPlate, [125I]-S36057; settings: compound at 10 μM; [125I]-S36057
T4 construct: purchased Perkin Elmer Biosignal
Procedure, shortened: as §1

Mouse urotensin (mUR2) = target: T5, Mouse urotensin (mUR2) (Mus musculus, UniProt Q8VIH9); assay: Radioligand binding, mouse urotensin mUR2 membranes, FlashPlate, [125I]-Urotensin II; settings: compound at 10 μM; [125I]-Urotensin II
T5 construct: purchased Perkin Elmer Biosignal
T5 sequence (Q8VIH9 1-385): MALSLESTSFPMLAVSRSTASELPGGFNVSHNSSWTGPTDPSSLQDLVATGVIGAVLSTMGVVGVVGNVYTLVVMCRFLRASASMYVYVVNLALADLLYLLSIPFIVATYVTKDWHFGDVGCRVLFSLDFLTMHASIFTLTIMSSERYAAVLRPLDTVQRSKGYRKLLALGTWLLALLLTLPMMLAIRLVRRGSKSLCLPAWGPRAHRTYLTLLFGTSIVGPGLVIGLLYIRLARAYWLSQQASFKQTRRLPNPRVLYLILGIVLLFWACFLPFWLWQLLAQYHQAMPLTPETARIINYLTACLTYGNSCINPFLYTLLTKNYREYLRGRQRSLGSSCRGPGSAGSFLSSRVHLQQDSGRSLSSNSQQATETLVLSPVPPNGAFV
Procedure, shortened: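 Cloned mouse urotensin (mUR2) receptor membranes from Perkin Elmer Biosignal were immobilized in FlashPlate microplates using a proprietary coating. Each well got 19.5 μl buffer, then 0.5 μl of DMSO, reference ligand, or compound. Adding 5 μl of [125I]-Urotensin II, diluted to 5× final concentration in binding buffer, started binding. Plates were sealed with TopSeal-A and incubated 1 hour at room temperature in the dark. Wells were counted for 30 seconds each on a TopCount after a 60-second delay, and percentage inhibition was calculated.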

Human δ-opioid (DOP) = target: T6, Human δ-opioid (DOP) (Homo sapiens, UniProt P41143); assay: Radioligand binding, human δ-opioid (DOP) membranes, FlashPlate, [3H]-Bremazocine; settings: compound at 10 μM; [3H]-Bremazocine
T6 construct: purchased Perkin Elmer Biosignal
Procedure, shortened: as §1

[2] = target: T7, Human neuropeptide Y (NPY-Y1) (Homo sapiens, UniProt P25929); assay: Radioligand binding, human neuropeptide Y NPY-Y1 membranes, FlashPlate, [125I]-PYY; settings: compound at 10 μM; [125I]-PYY
T7 construct: purchased Perkin Elmer Biosignal
T7 sequence (P25929 1-384): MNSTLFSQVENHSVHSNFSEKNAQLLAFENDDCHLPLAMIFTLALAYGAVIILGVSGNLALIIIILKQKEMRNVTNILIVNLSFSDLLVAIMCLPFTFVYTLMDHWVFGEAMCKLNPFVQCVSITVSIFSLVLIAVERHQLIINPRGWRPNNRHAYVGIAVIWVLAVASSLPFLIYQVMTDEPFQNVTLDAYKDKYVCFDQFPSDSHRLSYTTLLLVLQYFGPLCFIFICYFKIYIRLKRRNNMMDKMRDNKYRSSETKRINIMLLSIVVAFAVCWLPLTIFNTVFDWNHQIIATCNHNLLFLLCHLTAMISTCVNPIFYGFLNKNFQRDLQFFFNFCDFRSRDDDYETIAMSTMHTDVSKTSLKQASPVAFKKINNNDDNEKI
Procedure, shortened: as §1

Human Melanocortin (MC4) = target: T8, Human Melanocortin (MC4) (Homo sapiens, UniProt P32245); assay: Radioligand binding, human melanocortin MC4 membranes, FlashPlate, [125I]-NDP-αMSH; settings: compound at 10 μM; [125I]-NDP-αMSH
T8 construct: purchased Perkin Elmer Biosignal
Procedure, shortened: as §1

Human neurokinin (NK1) = target: T9, Human neurokinin (NK1) (Homo sapiens, UniProt P25103); assay: Radioligand binding, human neurokinin NK1 membranes, filtration, [125I]-Substance P; settings: compound at 10 μM; [125I]-Substance P
T9 construct: purchased Perkin Elmer Biosignal
Procedure, shortened: as §2

Human melanocortin (MC5) = target: T10, Human melanocortin (MC5) (Homo sapiens, UniProt P33032); assay: Radioligand binding, human melanocortin MC5 membranes, FlashPlate, [125I]-NDP-αMSH; settings: compound at 10 μM; [125I]-NDP-αMSH
T10 construct: purchased Perkin Elmer Biosignal
Procedure, shortened: as §1

Human opioid (ORL1) = target: T11, Human opioid (ORL1) (Homo sapiens, UniProt P41146); assay: Radioligand binding, human opioid ORL1 membranes, FlashPlate, [125I]-Nociceptin; settings: compound at 10 μM; [125I]-Nociceptin
T11 construct: purchased Perkin Elmer Biosignal
Procedure, shortened: as §1

T10 sequence (P33032 whole entry): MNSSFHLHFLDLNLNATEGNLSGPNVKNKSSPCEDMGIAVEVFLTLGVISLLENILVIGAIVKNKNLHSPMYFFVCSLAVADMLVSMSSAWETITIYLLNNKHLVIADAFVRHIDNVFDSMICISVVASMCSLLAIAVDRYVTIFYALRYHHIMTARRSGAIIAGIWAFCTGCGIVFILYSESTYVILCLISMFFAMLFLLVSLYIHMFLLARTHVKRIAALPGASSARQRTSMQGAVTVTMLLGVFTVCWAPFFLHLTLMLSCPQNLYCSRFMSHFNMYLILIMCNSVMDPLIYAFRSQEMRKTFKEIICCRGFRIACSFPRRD
T4 sequence (Q99705 whole entry): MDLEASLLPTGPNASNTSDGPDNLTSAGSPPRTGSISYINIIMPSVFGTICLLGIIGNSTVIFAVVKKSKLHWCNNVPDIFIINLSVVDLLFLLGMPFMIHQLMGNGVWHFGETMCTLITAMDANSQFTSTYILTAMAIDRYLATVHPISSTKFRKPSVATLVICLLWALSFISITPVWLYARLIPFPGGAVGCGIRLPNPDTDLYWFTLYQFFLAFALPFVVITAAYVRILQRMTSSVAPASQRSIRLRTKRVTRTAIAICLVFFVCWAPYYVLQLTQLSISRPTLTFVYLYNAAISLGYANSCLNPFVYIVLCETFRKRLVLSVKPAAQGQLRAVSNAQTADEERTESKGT
T11 sequence (P41146 whole entry): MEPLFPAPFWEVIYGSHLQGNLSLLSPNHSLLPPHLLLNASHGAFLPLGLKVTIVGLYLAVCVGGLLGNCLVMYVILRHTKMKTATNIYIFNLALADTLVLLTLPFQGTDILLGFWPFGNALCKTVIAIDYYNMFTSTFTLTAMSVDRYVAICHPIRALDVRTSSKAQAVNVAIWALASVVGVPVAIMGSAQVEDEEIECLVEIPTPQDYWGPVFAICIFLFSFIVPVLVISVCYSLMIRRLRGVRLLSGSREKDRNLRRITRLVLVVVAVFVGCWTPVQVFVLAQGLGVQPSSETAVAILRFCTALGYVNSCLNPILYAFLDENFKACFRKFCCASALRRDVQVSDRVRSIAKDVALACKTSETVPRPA
T8 sequence (P32245 whole entry): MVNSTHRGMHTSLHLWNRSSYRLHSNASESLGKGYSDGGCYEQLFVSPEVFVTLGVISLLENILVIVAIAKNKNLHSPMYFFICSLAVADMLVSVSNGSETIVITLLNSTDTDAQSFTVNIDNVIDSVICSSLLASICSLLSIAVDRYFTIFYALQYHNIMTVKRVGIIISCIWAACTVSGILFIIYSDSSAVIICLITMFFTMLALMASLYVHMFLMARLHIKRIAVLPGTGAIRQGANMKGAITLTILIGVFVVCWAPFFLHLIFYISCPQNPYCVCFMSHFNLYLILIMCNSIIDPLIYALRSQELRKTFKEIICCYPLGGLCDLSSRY
T9 sequence (P25103 whole entry): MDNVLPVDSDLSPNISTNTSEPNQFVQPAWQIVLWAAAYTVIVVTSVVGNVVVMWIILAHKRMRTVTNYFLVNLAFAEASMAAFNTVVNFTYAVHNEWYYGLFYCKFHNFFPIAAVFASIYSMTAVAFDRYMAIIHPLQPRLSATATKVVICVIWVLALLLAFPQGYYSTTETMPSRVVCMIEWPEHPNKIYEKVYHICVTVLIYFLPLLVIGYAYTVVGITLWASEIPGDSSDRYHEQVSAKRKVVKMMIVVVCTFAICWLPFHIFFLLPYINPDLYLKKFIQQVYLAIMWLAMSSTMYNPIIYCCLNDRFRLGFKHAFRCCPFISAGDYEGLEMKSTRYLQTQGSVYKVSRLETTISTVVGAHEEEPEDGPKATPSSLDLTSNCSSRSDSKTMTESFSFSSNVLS
T1 sequence (P41968 whole entry): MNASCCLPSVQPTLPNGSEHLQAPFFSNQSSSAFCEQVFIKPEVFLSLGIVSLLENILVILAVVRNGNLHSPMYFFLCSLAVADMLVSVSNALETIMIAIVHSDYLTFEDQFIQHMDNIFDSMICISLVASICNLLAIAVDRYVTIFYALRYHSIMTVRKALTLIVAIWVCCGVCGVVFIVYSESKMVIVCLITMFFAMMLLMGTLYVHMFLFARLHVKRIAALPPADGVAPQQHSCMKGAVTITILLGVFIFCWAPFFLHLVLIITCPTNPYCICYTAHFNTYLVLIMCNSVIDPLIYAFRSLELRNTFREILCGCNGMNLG
T2 sequence (P41145 whole entry): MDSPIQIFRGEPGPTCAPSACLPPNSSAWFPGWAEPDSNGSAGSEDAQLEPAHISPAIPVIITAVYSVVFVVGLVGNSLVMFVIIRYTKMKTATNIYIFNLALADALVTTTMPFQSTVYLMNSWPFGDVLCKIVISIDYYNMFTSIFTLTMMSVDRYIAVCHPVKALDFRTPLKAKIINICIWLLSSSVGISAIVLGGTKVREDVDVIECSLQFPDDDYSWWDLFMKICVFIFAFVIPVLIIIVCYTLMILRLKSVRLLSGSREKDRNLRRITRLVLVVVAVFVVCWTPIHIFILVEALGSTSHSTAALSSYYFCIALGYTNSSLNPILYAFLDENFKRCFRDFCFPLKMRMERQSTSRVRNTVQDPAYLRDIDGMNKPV
T6 sequence (P41143 whole entry): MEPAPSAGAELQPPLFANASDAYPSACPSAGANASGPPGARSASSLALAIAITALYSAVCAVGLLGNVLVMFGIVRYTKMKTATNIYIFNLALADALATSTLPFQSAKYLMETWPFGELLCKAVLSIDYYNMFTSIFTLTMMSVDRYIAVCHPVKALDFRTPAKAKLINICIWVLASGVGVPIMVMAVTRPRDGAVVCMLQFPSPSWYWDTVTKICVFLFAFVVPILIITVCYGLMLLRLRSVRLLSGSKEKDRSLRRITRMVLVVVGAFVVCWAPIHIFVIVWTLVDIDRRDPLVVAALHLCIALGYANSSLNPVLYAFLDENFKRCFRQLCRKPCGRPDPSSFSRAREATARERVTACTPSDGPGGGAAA
T3 sequence (P35372 whole entry): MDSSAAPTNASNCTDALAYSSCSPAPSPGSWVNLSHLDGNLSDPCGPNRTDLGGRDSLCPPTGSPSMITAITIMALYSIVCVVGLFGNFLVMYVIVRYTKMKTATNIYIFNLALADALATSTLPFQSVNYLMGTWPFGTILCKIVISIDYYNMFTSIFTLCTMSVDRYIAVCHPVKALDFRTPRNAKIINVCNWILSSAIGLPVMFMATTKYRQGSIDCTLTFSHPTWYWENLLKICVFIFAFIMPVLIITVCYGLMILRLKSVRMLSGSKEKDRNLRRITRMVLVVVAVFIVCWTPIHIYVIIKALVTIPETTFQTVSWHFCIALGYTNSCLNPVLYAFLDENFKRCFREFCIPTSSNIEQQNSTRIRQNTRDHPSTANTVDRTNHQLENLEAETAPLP

SMILES | A3 radioligand binding, percentage inhibition (Human Melanocortin (MC3)) | A2 radioligand binding, percentage inhibition (Human κ-Opioid (KOP)) | A7 radioligand binding, percentage inhibition (Human μ-opioid (MOP)) | A6 radioligand binding, percentage inhibition [1] | A11 radioligand binding, percentage inhibition (Mouse urotensin (mUR2)) | A1 radioligand binding, percentage inhibition (Human δ-opioid (DOP)) | A9 radioligand binding, percentage inhibition [2] | A4 radioligand binding, percentage inhibition (Human Melanocortin (MC4)) | A8 radioligand binding, percentage inhibition (Human neurokinin (NK1)) | A5 radioligand binding, percentage inhibition (Human melanocortin (MC5)) | A10 radioligand binding, percentage inhibition (Human opioid (ORL1))
CO[C@H]1[C@H](O)[C@@H](COCc2ccc(-c3ccccc3)cc2)OC(OCCc2ccccc2)[C@@H]1NC(=O)CCNC(=N)N (stereo partly shown) [compound 110] | − (“−” indicates less than 50% inhibition at 10 μM) | − (“−” indicates less than 50% inhibition at 10 μM) | − (“−” indicates less than 50% inhibition at 10 μM) | − (“−” indicates less than 50% inhibition at 10 μM) | − (“−” indicates less than 50% inhibition at 10 μM) | − (“−” indicates less than 50% inhibition at 10 μM) | − (“−” indicates less than 50% inhibition at 10 μM) | + (“+” indicates greater than 50% inhibition at 10 μM) | − (“−” indicates less than 50% inhibition at 10 μM) | + (“+” indicates greater than 50% inhibition at 10 μM) | − (“−” indicates less than 50% inhibition at 10 μM)
CO[C@H]1[C@H](O)[C@@H](COCc2ccc(-c3ccccc3)cc2)OC(OCCc2ccccc2)[C@@H]1NC(=O)CCCN (stereo partly shown) [compound 111] | − (“−” indicates less than 50% inhibition at 10 μM) | − (“−” indicates less than 50% inhibition at 10 μM) | − (“−” indicates less than 50% inhibition at 10 μM) | − (“−” indicates less than 50% inhibition at 10 μM) | − (“−” indicates less than 50% inhibition at 10 μM) | − (“−” indicates less than 50% inhibition at 10 μM) | − (“−” indicates less than 50% inhibition at 10 μM) | − (“−” indicates less than 50% inhibition at 10 μM) | + (“+” indicates greater than 50% inhibition at 10 μM) | − (“−” indicates less than 50% inhibition at 10 μM) | − (“−” indicates less than 50% inhibition at 10 μM)
CO[C@H]1[C@H](O)[C@@H](COCc2ccc(-c3ccccc3)cc2)OC(OCCc2ccccc2)[C@@H]1NC(=O)CCCNC(=N)N (stereo partly shown) [compound 112] | + (“+” indicates greater than 50% inhibition at 10 μM) | − (“−” indicates less than 50% inhibition at 10 μM) | − (“−” indicates less than 50% inhibition at 10 μM) | − (“−” indicates less than 50% inhibition at 10 μM) | − (“−” indicates less than 50% inhibition at 10 μM) | − (“−” indicates less than 50% inhibition at 10 μM) | − (“−” indicates less than 50% inhibition at 10 μM) | + (“+” indicates greater than 50% inhibition at 10 μM) | + (“+” indicates greater than 50% inhibition at 10 μM) | + (“+” indicates greater than 50% inhibition at 10 μM) | − (“−” indicates less than 50% inhibition at 10 μM)
CO[C@H]1[C@H](O)[C@@H](COCc2ccc3ccccc3c2)OC(OCCc2ccccc2)[C@@H]1NC(=O)CNC(=N)N (stereo partly shown) [compound 113] | − (“−” indicates less than 50% inhibition at 10 μM) | − (“−” indicates less than 50% inhibition at 10 μM) | − (“−” indicates less than 50% inhibition at 10 μM) | − (“−” indicates less than 50% inhibition at 10 μM) | − (“−” indicates less than 50% inhibition at 10 μM) | − (“−” indicates less than 50% inhibition at 10 μM) | − (“−” indicates less than 50% inhibition at 10 μM) | + (“+” indicates greater than 50% inhibition at 10 μM) | + (“+” indicates greater than 50% inhibition at 10 μM) | + (“+” indicates greater than 50% inhibition at 10 μM) | + (“+” indicates greater than 50% inhibition at 10 μM)
CO[C@H]1[C@H](O)[C@@H](COCc2ccc3ccccc3c2)OC(OCCc2ccccc2)[C@@H]1NC(=O)CCNC(=N)N (stereo partly shown) [compound 114] | − (“−” indicates less than 50% inhibition at 10 μM) | + (“+” indicates greater than 50% inhibition at 10 μM) | − (“−” indicates less than 50% inhibition at 10 μM) | − (“−” indicates less than 50% inhibition at 10 μM) | − (“−” indicates less than 50% inhibition at 10 μM) | − (“−” indicates less than 50% inhibition at 10 μM) | − (“−” indicates less than 50% inhibition at 10 μM) | + (“+” indicates greater than 50% inhibition at 10 μM) | + (“+” indicates greater than 50% inhibition at 10 μM) | + (“+” indicates greater than 50% inhibition at 10 μM) | − (“−” indicates less than 50% inhibition at 10 μM)
